The results in this text go back to patent US8946197B2, “Transglutaminase TG2 inhibitors, pharmaceutical compositions, and methods of use thereof” (CHDI Foundation, Inc., priority 2009, dated 2015).

pIC50: −log10 of the molar value. “And” between values parts separate entries of the source, which are not always exact repeats. Equal values may be shown once.

The target in this test is T1, human TG2 (Homo sapiens, UniProt P21980).
T1 sequence (P21980 1-687): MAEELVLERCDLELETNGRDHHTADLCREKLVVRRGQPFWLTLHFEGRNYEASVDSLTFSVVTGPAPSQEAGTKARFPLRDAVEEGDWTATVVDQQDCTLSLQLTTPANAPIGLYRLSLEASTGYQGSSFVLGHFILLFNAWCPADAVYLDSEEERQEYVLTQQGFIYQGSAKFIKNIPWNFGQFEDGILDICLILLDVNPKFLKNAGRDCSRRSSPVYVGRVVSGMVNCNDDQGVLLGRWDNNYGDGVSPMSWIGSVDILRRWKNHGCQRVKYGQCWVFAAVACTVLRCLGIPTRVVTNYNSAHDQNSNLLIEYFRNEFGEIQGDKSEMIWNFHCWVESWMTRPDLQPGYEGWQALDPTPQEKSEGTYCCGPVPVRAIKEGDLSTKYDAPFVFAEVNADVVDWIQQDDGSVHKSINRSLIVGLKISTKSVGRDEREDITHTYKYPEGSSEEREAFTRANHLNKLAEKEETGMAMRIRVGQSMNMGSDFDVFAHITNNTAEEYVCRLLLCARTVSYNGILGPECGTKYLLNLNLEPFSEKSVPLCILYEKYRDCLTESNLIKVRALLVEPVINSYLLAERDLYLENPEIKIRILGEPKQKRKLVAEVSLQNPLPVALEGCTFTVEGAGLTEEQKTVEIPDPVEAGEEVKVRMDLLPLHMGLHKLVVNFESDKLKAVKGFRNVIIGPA
The test is described as follows: fluorescent screening assay for human TG2. Format: biochemical. The note with it: 20 nM TG2, 8 μM N,N-dimethylated Casein, 16 μM KxD, pH 7.4, 37° C. How it is done:
(§1) The fluorescent screening assay for human TG2 was performed as described herein: Assay conditions were 20 nM TG2, 8 μM N,N-dimethylated Casein (NMC) and 16 μM K×D (used for all transglutaminase assays) in 25 mM Hepes, pH 7.4, 250 mM NaCl, 2 mM MgCl2, 0.5 mM CaCl2, 0.2 mM DTT, 0.05% Pluronic F-127 at 37° C. A time point was taken with a microplate reader (Safire or Ultra, Tecan; ex: 350 nm, em: 535 nm) every 3 minutes for up to 2 hours and the initial linear reaction progress was used to determine the reaction velocity as a measure for enzyme activity. Assay conditions were identical for human TG6 and similar for human TG1 and mouse TG2 apart from enzyme concentration (mTG2 at 5 nM; TG1 at 10 nM) and CaCl2 concentration (0.2 mM for mTG2; 0.05 mM for TG1). Factor XIIIa was activated using 0.1 μg/μl thrombin (Sigma) in 35 mM Tris pH 8.0 for 20 min at 30° C. and the transamidation reaction was performed with 20 nM Factor XIIIa in 50 mM Tris pH 8.0, 1.25 mM CaCl2, 0.05% Pluronic, 0.2 mM DTT. TG3 was activated with 0.02 μg/μl thrombin under the same conditions as Factor XIIIa and assay conditions were 10 nM TG3 in 50 mM Hepes, pH 8, 20 mM CaCl2, 0.2 mM DTT, 0.05% Pluronic F-127.
as §1, with “A” for “The”

As for `C=CC(=O)Nc1ccc(S(=O)(=O)N2CCN(C(=O)OCC(C)C)CC2)cc1` [4-(4-Acryloylamino-benzenesulfonyl)-piperazine-1-carboxylic acid isobutyl ester], the pIC50 was 6.00 to 7.00 and > 7.00.
For `C=CC(=O)Nc1ccc(S(=O)(=O)N2CCN(C(=O)OC(C)C)CC2)cc1` [4-(4-Acryloylamino-benzenesulfonyl)-piperazine-1-carboxylic acid isopropyl ester] the value was 6.00 to 7.00 and > 7.00; for `C=CC(=O)Nc1ccc(S(=O)(=O)N2CCN(C(=O)Oc3ccccc3)CC2)cc1` [4-(4-Acryloylamino-benzenesulfonyl)-piperazine-1-carboxylic acid phenyl ester], 6.00 to 7.00 and > 7.00.
The figure for `CC#CC(=O)Nc1ccc(S(=O)(=O)N2CCN(C(=O)OC(C)(C)C)CC2)cc1` [4-[4-(1-Oxo-but-2-ynylamino)-benzenesulfonyl]-piperazine-1-carboxylic acid tert-butyl ester] is 4.60 to 6.00; for `C=C(F)C(=O)Nc1ccc(S(=O)(=O)N2CCN(C(=O)OC(C)(C)C)CC2)cc1` [4-[4-(2-Fluoro-acryloylamino)-benzenesulfonyl]-piperazine-1-carboxylic acid tert-butyl ester] it is 4.60 to 6.00.
The figure for `C=CC(=O)N(C)c1ccc(S(=O)(=O)N2CCN(C(=O)OC(C)(C)C)CC2)cc1` [4-[4-(Acryloyl-methyl-amino)-benzenesulfonyl]-piperazine-1-carboxylic acid tert-butyl ester] is 4.60 to 6.00; for `CC(C)(C)OC(=O)N1CCN(S(=O)(=O)c2ccc(NC(=O)/C=C/Cl)cc2)CC1` [(E)-tert-butyl 4-(4-(3-chloroacrylamido)phenylsulfonyl)piperazine-1-carboxylate] it is 4.60 to 6.00.
`C/C=C/C(=O)Nc1ccc(S(=O)(=O)N2CCN(C(=O)OC(C)(C)C)CC2)cc1` [(E)-tert-butyl 4-(4-but-2-enamidophenylsulfonyl)piperazine-1-carboxylate]: the pIC50 was 4.60 to 6.00.
The compound `CC(C)(C)OC(=O)N1CCN(S(=O)(=O)c2ccc(NC(=O)/C=C\Cl)cc2)CC1` [(Z)-tert-butyl 4-(4-(3-chloroacrylamido)phenylsulfonyl)piperazine-1-carboxylate] had a pIC50 of 6.00 to 7.00.
The figure for `C/C=C\C(=O)Nc1ccc(S(=O)(=O)N2CCN(C(=O)OC(C)(C)C)CC2)cc1` [(Z)-tert-butyl 4-(4-but-2-enamidophenylsulfonyl)piperazine-1-carboxylate] is 4.60 to 6.00; for `C=CC(=O)Nc1ccc(S(=O)(=O)N2CCC(N(C)C(=O)C34CC5CC(CC(C5)C3)C4)CC2)cc1` [Adamantane-1-carboxylic acid [1-(4-acryloylamino-benzenesulfonyl)-piperidin-4-yl]-methyl-amide] it is 6.00 to 7.00 and > 7.00.
`C=CC(=O)Nc1ccc(S(=O)(=O)N2CCN(C(=O)Cc3cccc(Oc4ccccc4)c3)CC2)cc1` [N-(4-{4-[2-(3-Phenoxy-phenyl)-acetyl]-piperazine-1-sulfonyl}-phenyl)-acrylamide]: the pIC50 was 6.00 to 7.00 and > 7.00.
For `C=CC(=O)Nc1ccc(S(=O)(=O)N2CCN(C(=O)Cc3ccc(Oc4ccccc4)cc3)CC2)cc1` [N-(4-{4-[2-(4-Phenoxy-phenyl)-acetyl]-piperazine-1-sulfonyl}-phenyl)-acrylamide] the value was 6.00 to 7.00 and > 7.00.
The figure for `C=CC(=O)Nc1ccc(S(=O)(=O)N(C)Cc2ccc(CN3CCN(C)CC3)cc2)cc1` [N-(4-{Methyl-[4-(4-methyl-piperazin-1-ylmethyl)-benzyl]-sulfamoyl}-phenyl)-acrylamide] is 4.60 to 6.00; for `C=CC(=O)Nc1cccc(S(=O)(=O)N2CCN(Cc3ccccc3)CC2)c1` [N-[3-(4-Benzyl-piperazine-1-sulfonyl)-phenyl]-acrylamide] it is 4.60 to 6.00.
For `C=CC(=O)Nc1cccc(S(=O)(=O)N2CCN(CCc3ccccc3)CC2)c1` [N-[3-(4-Phenethyl-piperazine-1-sulfonyl)-phenyl]-acrylamide] the value was 4.60 to 6.00; for `C=CC(=O)Nc1cccc(S(=O)(=O)N2CCN(c3ccccc3)CC2)c1` [N-[3-(4-Phenyl-piperazine-1-sulfonyl)-phenyl]-acrylamide], 4.60 to 6.00.
